Reference: PubChem BioAssay (NCI)
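Test compounds were applied to cells in 96-well plates for 48 hours at 5 doses. TGI: total growth inhibition.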

Assays:
Assay in all cases: NCI-60 cell line screen, 48 h
[1] = system: HCC-2998 colon
[2] = system: HCT-116 colon
[3] = system: K-562 leukemia
[4] = system: KM12 colon
[5] = system: MDA-MB-435
[6] = system: MOLT-4 leukemia
[7] = system: NCI-H23 lung
[8] = system: NCI-H460 lung
[9] = system: SF-295 CNS
[10] = system: SK-OV-3 ovarian

| Compound | TGI [1] [µM] | TGI [2] [µM] | TGI [3] [µM] | TGI [4] [µM] | TGI [5] [µM] | TGI [6] [µM] | TGI [7] [µM] | TGI [8] [µM] | TGI [9] [µM] | TGI [10] [µM] |
| --- | --- | --- | --- | --- | --- | --- | --- | --- | --- | --- |
| CCC(CCCCC1CC[C@H]2CC(=O)C[C@@H]12)OC (stereo not given in full) | > 100 | > 100 | 66.1 | > 100 | > 100 | > 100 | > 100 | > 100 | > 100 | > 100 |
| CCC(C)(C)c1ccc(Oc2cccc(C(=O)O)c2)cc1 | > 100 | > 100 | > 100 | > 100 | > 100 | 70.7 | > 100 | > 100 | > 100 | > 100 |
| N=c1c2ccccc2nc2oc3ccc(Cl)cc3n12 | > 100 | 69.3 | > 100 | > 100 | > 100 | > 100 | 34.2 | > 100 | 35.6 | 46.2 |
| O=C1/C(=C/c2cccc([N+](=O)[O-])c2)N=C(c2ccccc2)N1c1ccc2c(c1)Sc1cc(N3C(=O)/C(=C/c4cccc([N+](=O)[O-])c4)N=C3c3ccccc3)ccc1N2 | > 100 | > 100 | 96.7 | > 100 | 34.5 | > 100 | 92.4 | > 100 | 32.6 | 30.9 |
| CN(CCNC(=O)c1cc(-c2ccccc2)nc2ccccc12)CCNC(=O)c1cc(-c2ccccc2)nc2ccccc12 | 5.54 | > 46.4 | > 36.7 | > 40.5 | 13.1 | > 100 | > 100 | > 100 | 90.5 | > 100 |
| COc1cc(C2SC(N)=Nc3c2c(C)nn3C(=O)Cc2ccccc2)ccc1O (stereo not given) | > 100 | > 100 | > 100 | > 100 | > 100 | > 100 | > 100 | > 100 | > 100 | > 100 |
| CCCC[Si](CCCC)(CCCC)O[C@@H](/C=C/C(=O)OCC)[C@H](Cc1ccccc1)O[Si](CCCC)(CCCC)CCCC | > 100 | > 100 | > 100 | > 100 | > 100 | > 100 | > 100 | > 100 | > 100 | > 100 |
| O=C1C(c2c(O)[nH]c3ccc(S(=O)(=O)N(CCO)CCO)cc23)=Nc2ccccc21 | > 100 | > 100 | > 100 | > 100 | > 100 | > 100 | > 100 | > 100 | > 100 | > 100 |
| Clc1ccc(CSCc2ccc(Cl)cc2Cl)c(Cl)c1 | 98.2 | > 100 | > 100 | > 100 | > 100 | > 100 | > 100 | > 100 | > 100 | > 100 |
| Cc1ccc(S(=O)(=O)N/N=C2/CC[C@H](C(C)(C)C)C[C@@H]2C)cc1 | 33.5 | 29.3 | 42.1 | 49.7 | 32.7 | 31.1 | 36.8 | 32.2 | 29.2 | 36.6 |
| Cc1ccc2nc(Cl)c(/C=N/N3C(=O)/C(=C/Cc4ccco4)N=C3c3ccccc3)cc2c1 | 75.8 | 39.3 | > 100 | > 93.6 | 5.29 | > 92 | > 84.5 | 75.9 | > 100 | > 100 |
